The conditions of data set [1]: 298.15 K, 100 kPa, Liquid; for viscosity: Falling or rolling sphere viscometry; for mass density: Vibrating tube method.
The nature of data set [2]: xn = mol fraction of the nth substance listed. Conditions: 298.2 K, 100 kPa, Liquid, x1 = 0.0843.
Data set [3] in a line: wn = mass fraction of the nth substance listed. To be noted: 298.2 K, 100 kPa, Liquid; for viscosity: Falling or rolling sphere viscometry; for mass density: Vibrating tube method.

Our source for the viscosity and mass density values is the NIST ThermoML archive (doi:10.1021/acs.jced.8b00939).

Numbers after ± are expanded uncertainties.

For orientation: viscosity means the resistance of a fluid to flow. The term mass density denotes mass per unit of volume. Turning to `C=CCc1ccc(O)c(OC)c1` [2-hydroxy-5-allylanisole], in data set [1], the viscosity stood at 6.98 ± 0.08 mPa·s and the mass density is given as 1062 ± 2 kg/m3.
The corresponding values for `C=CC(C)(O)CCC=C(C)C` (stereo not drawn) [3,7-dimethyl-1,6-octadien-3-ol] are 4.35 ± 0.05 mPa·s and 857.3 ± 1.7 kg/m3.
Regarding `C/C1=C\CC/C(C)=C/CC(C)(C)/C=C/C1` [(E,E,E)-2,6,6,9-tetramethyl-1,4,8-cycloundecatriene] + C=C1CC/C=C(\C)CC[C@@H]2[C@@H]1CC2(C)C, in data set [2] (Falling or rolling sphere viscometry), the viscosity is 5.87 ± 0.07 mPa·s. The mass density in data set [2] (Vibrating tube method) turned out to be 897.1 ± 1.8 kg/m3.
In the case of `C=C(C)[C@H]1CC=C(C)CC1` [(R)-1-methyl-4-(1-methylethenyl)cyclohexene], in data set [1], the viscosity worked out at 0.87 ± 0.01 mPa·s and the mass density was determined as 839.1 ± 1.7 kg/m3.
With `CCO` [ethanol], in data set [1], the viscosity was 1.13 ± 0.01 mPa·s and the mass density came to 785.1 ± 1.6 kg/m3.
Consider `CCO` [ethanol] + O, for which the viscosity in data set [3] (w2 = 0.061) stood at 1.31 ± 0.02 mPa·s; in data set [3] (w2 = 0.124) it was 1.46 ± 0.02 mPa·s; in data set [3] (w2 = 0.172) it was 1.64 ± 0.04 mPa·s; in data set [3] (w2 = 0.233) it was 1.8 ± 0.03 mPa·s; in data set [3] (w2 = 0.276), 1.87 ± 0.02 mPa·s; in data set [3] (w2 = 0.34) it was 1.9 ± 0.1 mPa·s. Also, the values for the viscosity in data set [3] (w2 = 0.41), in data set [3] (w2 = 0.5) and in data set [3] (w2 = 0.62) were 2.19 ± 0.15 mPa·s, 2.31 ± 0.03 mPa·s and 2.34 ± 0.02 mPa·s, respectively. For the same compound, the mass density is reported as 802.5 ± 1.9 kg/m3 in data set [3] (w2 = 0.061); 819.5 ± 2 kg/m3 in data set [3] (w2 = 0.124); 833.4 ± 3.1 kg/m3 in data set [3] (w2 = 0.172); 848.2 ± 3.3 kg/m3 in data set [3] (w2 = 0.233); 857.9 ± 2.6 kg/m3 in data set [3] (w2 = 0.276); 861.8 ± 9 kg/m3 in data set [3] (w2 = 0.34). In addition, the mass density in data set [3] (w2 = 0.41) was found to be 887.3 ± 18 kg/m3; in data set [3] (w2 = 0.5) it was 908.8 ± 4.9 kg/m3; in data set [3] (w2 = 0.62) it was 935.2 ± 9 kg/m3.
With `C=CC(C)(CCC=C(C)C)OC(C)=O` (stereo not drawn) [linalool acetate], in data set [1], the viscosity is 2.3 ± 0.03 mPa·s and the mass density is listed as 898.6 ± 1.8 kg/m3.
Turning to `C=CCc1ccc(OC)c(OC)c1` [methyleugenol], in data set [1], the viscosity is recorded as 4.23 ± 0.04 mPa·s and the mass density was determined as 1031 ± 2 kg/m3.
In the case of `O` [water], the viscosity in data set [1] was 0.89 ± 0.01 mPa·s.
